A melting point compilation (Tetko et al.; mined from patent text by program, amines drawn as free bases though some values may be those of a salt)

Structure (SMILES) | melting point
Fc1cc(F)c(-c2c(Cl)nc3c(Cl)cnn3c2Cl)c(F)c1 | 128 °C
Cc1sc(C(N)=O)c2c1-c1nn(CC(F)(F)F)cc1CC2 | 227 to 228 °C
CC(=S)NC[C@H]1CN(c2ccc3c(c2)C[C@@H](C)N3C=O)C(=O)O1 | 95 to 96 °C
Cc1ccc(-c2ncc(OC3SCC(O)C(O)C3O)cc2F)cn1 (configuration not stated) | 184 °C
CC(C)C1Cc2cnc3c(c2C1=O)CCO3 (configuration not stated) | 68 to 69 °C
Cc1cccc(Cl)c1NC(=O)Nc1ccc(CC(=O)NC(CC(C)C)c2ncc(CCC(=O)O)s2)cc1 (configuration not stated) | 160 to 162 °C
CN(C)C(=S)Oc1ccc2ncc([N+](=O)[O-])c(-c3ccccc3)c2c1 | 205 to 208 °C
CC(=O)c1cc(N(C)C)ccc1NC(=O)c1ccccc1OCc1ccccc1 | 132 to 134 °C
CSc1nc(=O)n(C(C)C)c(=O)[nH]1 | 188 to 190 °C
Cc1cc2c(nc1C(O)c1cccs1)CCCCC2 (configuration not stated) | 102 to 104 °C
CN1Cc2c(-c3nc(CN)no3)ncn2-c2ccccc2C1=O | 183 to 185 °C
COc1c(C)cccc1C(=N)N | 72 to 74 °C
CCCCn1cc(C(=O)OCC)c(=O)c2oc3ccc(Cl)cc3c(=O)c21 | 226 to 228 °C
COP(=O)(Cc1ccc(CP(=O)(OC)OC)cc1)OC | 106 °C
CS(=O)(=O)OCC1COC(=O)N1c1ccc(Cl)cc1 (configuration not stated) | 124 to 126 °C
CNC(=O)c1cccc(-c2ccc3nnn(Cc4ccc5ncccc5c4)c3n2)c1 | 215 to 217 °C
C#Cc1cc(C)c(Oc2ccc(N)c(Nc3ccc(C#N)cc3)n2)c(C)c1 | 79 to 82 °C
CCOC(=O)c1cn(-c2nccs2)c2nc(Cl)cc(Cl)c2c1=O | 226 to 227 °C
ClCc1nc2cc(Cl)cc(Cl)c2o1 | 52 to 53 °C
COc1ccc(-c2cc(=O)n(CC=Cc3ccc(Cl)cc3)nc2-c2ccc(OC)c(F)c2)cc1F | 72.5 to 74.9 °C
c1ccc2c(c1)cc(-c1nnn[nH]1)c1nnnn12 | 280 to 282 °C
CC(=O)OCC1=C(C(=O)O)N2C(=O)C(=NSc3ccc(C)cc3)C2SC1 (configuration not stated) | 204 to 206 °C
CC(=O)c1ccc(C2=NC[C@@H](O)[C@H](c3ccccc3)O2)cc1 (racemic) | 130 °C
Cc1cc(SC2=C(O)CC(CCC3CCCO3)(C(C)C)OC2=O)c(C(C)(C)C)cc1CO (configuration not stated) | 57 to 59 °C
CCCCCCCCCCCCCCCCCCOc1cc(NC(=O)OCc2ccccc2)cc(OCCCCC(=O)OC)c1 | 59 to 62 °C

Structure (SMILES) | melting point
CCOC(=O)C(=NOC)c1nc(N)cc(Cl)n1 | 136 to 142 °C
C[C@]1(CN2CCN(C(=O)COc3ccc(Cl)cc3)CC2)Cn2cc([N+](=O)[O-])nc2O1 | 179 to 180 °C
CS(=O)(=O)OCCNc1ccc([N+](=O)[O-])cc1Cl | 114 to 115 °C
COCCOCCN1C(=O)C2(COc3cc4c(cc32)OCCO4)c2cc3c(cc21)OCCO3 (configuration not stated) | 146 to 148 °C
COC(=O)c1ccc(F)c([N+](=O)[O-])c1 | 58.5 to 59.5 °C
CN(C)c1ccccc1CC(=O)N1C[C@@H]2[C@H](F)CCC(c3ccccc3)(c3ccccc3)[C@@H]2C1 | 186 °C
CC1(C)CS(=O)CC(C)(C)c2[nH]c(-c3ccccc3)nc21 | 273 to 275 °C
CS(=O)(=O)c1ccc(C[C@H](CO)NC(=O)OCc2ccccc2)cc1 | 110 to 112 °C
Cc1nc(N2CCN(CCc3ccccc3)C2=O)sc1C(=O)NCc1ccccc1 | 156 to 157 °C
CCOC(=O)c1cccc(-c2cn(C)cc(-c3ccccc3)c2=O)c1 | 167 to 168 °C
CCOC(=O)C(=CNC1CC1)C(=O)c1c(F)c(F)c(Br)c(F)c1F | 167 to 168 °C
O=C1CCC(c2c[nH]c3cccc(F)c23)CC1 | 104 to 106 °C
COC(=O)[C@H]1CC[C@H](N2CCN(c3ccc(C4(C)CCN(C(=O)C(F)(F)F)CC4)cc3)C2=O)CC1 | 158 to 161 °C
O=C(Oc1ccc(Oc2ccc(C(F)(F)F)cn2)cc1)N1CCN(CCc2cccnc2)CC1 | 173 to 179 °C
Cc1cc(C)cc(-c2cnn3c(-c4cccc(-c5nnn(Cc6cccnc6)n5)c4)ccnc23)c1 | 73 °C
COc1ccccc1OCC(O)CN1CCC(N2CCN(c3ccc(Cl)cc3)C2=O)CC1 (configuration not stated) | 136 to 137 °C
COCCCNC(=O)c1cc(Br)c(OCc2ccccc2)cc1OCc1ccccc1 | 104 to 106 °C
CC(=O)c1ccc2c(c1)Sc1cc(C(C)=O)c(Cl)cc1N2C | 185 °C
CN(C)C(=O)Cc1nn(-c2ccccc2)c(=O)c2[nH]c3ccc(F)cc3c12 | 289 to 290 °C
COC(=O)C(NS(=O)(=O)Cc1c(Cl)c(C)cc2nc(OC)c(OC)nc12)c1ccccc1 (configuration not stated) | 214 to 217 °C
Nc1cc(N2CCOCC2)ccc1[N+](=O)[O-] | 177 to 178 °C
CCN(C(=O)Cn1c(=O)n(C)c2nc(-c3ccccc3)nc(OC)c21)c1ccccc1 | 173 to 175 °C
COc1ccc(C(=O)NNC(=O)c2occ(-c3ccccc3)c2-c2ccccc2)cc1NS(C)(=O)=O | 180 to 182 °C
CC[C@@H]1O[C@](/C=C/C2CC2)(C(F)(F)F)c2c(ccc3c2OCO3)NC1=O (relative stereo) | 188 to 190 °C
O=C(O)c1ncn2c1CN=C(c1ccccc1)c1cc(Cl)ccc1-2 | 268 to 270 °C

Structure (SMILES) | melting point
FC(F)(F)c1cccc(-c2ccn3cnnc3n2)c1 | 202 to 203 °C
O=C(C=Cc1cccc(-c2ccc(O)cc2)c1)NO | 127 to 128 °C
Cn1c(-c2ccc(N3CCOCC3)cc2)cnc1[C@H](Cc1ccccn1)N(C=O)c1nc2cc(Cl)ccc2s1 | 96 to 99 °C
CC(C)N(CCC(CCN(C(C)C)C(C)C)(C(N)=O)c1ccc(Cl)cc1)C(C)C | 113 to 115 °C
CN(C)C12CN3CN(CN(C3)C1)C2 | 110 to 111 °C
Cc1oc(-c2ccco2)nc1COc1ccc(COc2nn(Cc3ccc(OCc4nc(-c5ccco5)oc4C)cc3)cc2C=O)cc1 | 109 to 110 °C
CCCc1c(-c2ccncc2)[nH]c(-c2ccncc2)c1C(C)=O | 111 to 113 °C
CS(=O)c1cc(Cl)c(C=O)c(Cl)c1 (configuration not stated) | 100 to 102 °C
CN1C(=O)C(c2ccc(OC(F)F)cc2)(c2cccc(C(F)CCCF)c2)N=C1N (configuration not stated) | 54 to 57 °C
COC(=O)c1cccc(CNC(=O)C2Cc3ccccc3N2S(=O)(=O)c2ccc(-c3cccc(C(F)(F)F)c3)cc2)c1 (configuration not stated) | 50 °C
COC(=O)Nc1ccc(N)c(NCCO)c1 | 240 to 242 °C
CCOC(Nc1ccc(C(=O)O)cc1)C(=O)c1ccc(-c2ccccc2)cc1 (configuration not stated) | 179 °C
NC(=O)CNC(=O)c1cccc(-c2cc(F)cc3cc(Cc4cccc(C(F)(F)F)c4)sc23)c1 | 71 to 73 °C
CCOC(=O)C=Cc1ccc(C(=O)Cl)cc1 | 76.8 °C
COc1cc(C)c(C(=O)c2c(C)cncc2Br)c(OC)c1OC | 88 to 93 °C
Cc1ccc(NC(=O)N(Cc2ccccc2)Cc2ccccc2)c(C)c1 | 124 to 126 °C
COc1nc(NC(=O)NS(=O)(=O)c2c(Br)csc2C(=O)c2cccs2)nc(OC)n1 | 115 °C
Cc1c(-c2cnco2)[nH]c(=O)c2c1ccc1nc(Nc3c(Cl)cccc3Cl)n(C)c12 | > 300 °C
CC(C)(C)c1nc(C=Cc2cccnc2)nc(C(C)(C)C)c1O | 150 to 151 °C
CCOC(=O)c1snc(C(=O)OC(C)(C)C)c1N | 68 to 69 °C
COc1ccc(-c2cn([C@H]3CN4CCC3CC4)nn2)cn1 | 155 °C
N#Cc1cc(C(F)(F)F)[nH]c1-c1ccc(Cl)c([N+](=O)[O-])c1 | 258 to 260 °C
CCN(CC)CCn1nc2c3c(cccc31)Sc1ccccc1-2 | 49 to 50.5 °C
Cc1c(C(=O)O)sc2c(Br)cccc12 | 311 to 312 °C
O=c1c(CCCc2ccncc2)cc2cccnc2n1-c1cccc2nsnc12 | 191 to 192 °C

Structure (SMILES) | melting point
CCOC(=O)C1C(N(C)C(=O)C(F)(F)F)C(=O)N1c1ccc(OC)cc1 (configuration not stated) | 102 to 104 °C
CC(C)(C)C(=O)c1c[nH]c2ncc(N3C(=O)CCc4ccccc43)nc12 | 257 to 259 °C
CN(CC(F)(F)F)C(=O)COc1nnc(-c2ccccc2)s1 | 123 °C
O=S(=O)(Nc1cc(C(F)(F)F)ccc1Oc1ccccc1CO)c1cc(C(F)(F)F)cc(C(F)(F)F)c1 | 123 to 125 °C
CCOC(=O)OCC1OC(n2cc(C=CBr)c(=O)[nH]c2=O)CC1Cl (configuration not stated) | 181 °C
O=c1ccsn1Cc1ccccc1 | 78 to 80 °C
CCOC(=O)OCSCC1=C(C(=O)OCC)C(c2cccc([N+](=O)[O-])c2)C(C(=O)OCC)=C(C)N1 (configuration not stated) | 83 to 85 °C
OC1Cc2cc(F)cc(F)c2C1 (configuration not stated) | 52 to 56 °C
CCCn1nc(C2CC2)c(C(=O)OCC)c1Cc1ccc(-c2ccccc2-c2nnn(C(c3ccccc3)(c3ccccc3)c3ccccc3)n2)cc1 | 154 to 159 °C
CC(=O)OCC1OC(Oc2ccsc2C(=O)c2ccc(OC(F)(F)F)cc2)C(OC(C)=O)C(OC(C)=O)C1OC(C)=O (configuration not stated) | 90 to 93 °C
CCCn1c(=O)c2c(nc(C3CCC(=O)C3)n2Cc2ccccc2)n(CCC)c1=O (configuration not stated) | 145 °C
CCOC(=O)C=C1CCC(n2nc(-c3c(-c4ccccc4)nn4ccccc34)ccc2=O)CC1 (configuration not stated) | 166 to 168 °C
CC(=O)NCCCn1c(-c2ccc(Br)cc2)csc1=Nc1ccccc1 | 155 to 157 °C
CN(C)Cc1nnc2n1-c1ccc(Br)cc1C(c1ccccn1)=NC2 | 163 to 164 °C
CN1C(=O)C=C(c2ccc([N+](=O)[O-])cc2)C1=O | 163 to 166 °C
CCOC(=O)c1cc(=O)c2ccccc2n1C | 114 to 115 °C
C=CCOc1ccc(C(=O)O[C@H]2CC[C@H](C(=O)CCCCCBr)CC2)cc1 | 56 °C
COc1ccc(-n2nc(S)nc2-c2ccccc2)cc1 | 260 °C
Cc1oc(-c2ccccc2)nc1COc1ccc(CON=C(CCC(=O)O)c2ccncc2)cc1 | 161 to 162 °C
Nc1ccc([N+](=O)[O-])cc1S(=O)(=O)CCc1ccc(S(=O)(=O)O)cc1 | 248 to 253 °C
O=C(CCCCCNC(=O)C(c1ccccc1)c1ccccc1)NO | 55 to 56 °C
CCCc1c(OC)c(OC)cc2c1C(=O)N(CSc1nnnn1-c1ccccc1)S2(=O)=O | 145 to 146 °C
